These results are taken from patent publication US20140336233A1 (priority 2011, published 2014).

Like-named read-outs stand apart in the source and are kept apart here.

The test system of assay [1] is Phytophthora infestans. The assay is classed as in vivo, Phytophthora infestans on tomato plants (variety Rentita). The following applies: Trial 3, tomato, preventive 24 h, notation 6 days after contamination.
The test system of assay [2] is Peronospora parasitica. Nature of the assay: In vivo test against Peronospora parasitica (crucifer downy mildew). Also noted: species or system Peronospora parasitica on cabbage plants (Eminence variety). The following applies: cabbage, spray 24 h before contamination, grading 5 days. On the procedure: Spirotetramat is prepared by dilution of the SC100 g/l formulation in water to obtain the desired active material concentration.
Cabbage plants (Eminence variety) in starter cups, sown on a 50/50 peat soil-pozzolana substrate and grown at 18-20° C., are treated at the cotyledon stage by spraying with the aqueous suspension described above at 500, 125 and 31 mg/l.
Plants, used as controls, are treated with an aqueous solution not containing the active material.
After 24 hours, the plants are contaminated by spraying them with an aqueous suspension of Peronospora parasitica spores (37 500 spores per ml). The spores are collected from infected plants.
The contaminated cabbage plants are incubated for 5 days at 20° C., under a humid atmosphere.
(§1) Grading is carried out 5 days after the contamination, in comparison with the control plants.

Assay [3] has as its system Phytophthora infestans. The assay is classed as in vivo, Phytophthora infestans on potato plants (variety Bintje). The following applies: for Efficacy (Abbott formula): Trial 1, potato, spray 24 h before inoculation, notation 5 days after contamination.
Assay [4] deals with Plasmopara viticola. Nature of the assay: In vivo test against Plasmopara viticola (vine downy mildew). The following applies: from 25 to 200 g a.i./ha, spray 24 h before inoculation, grading 5 days (FIG. 4). On the procedure: The treatment is done by spray application in a spray cabinet at 500 L/ha with the aqueous dilutions of spirotetramat SC100 g/l formulation from 25 to 200 g a.i./ha.
The treatment is applied on six vine plants (Cabernet sauvignon variety, 9 weeks old) 24 hours and the plants are placed in a climatic chamber at 18° C. before inoculation.
The inoculation consists on spraying the sporangia suspension calibrated at 100 000 sporangia/ml, at the lower leaf face of each plant 24 h after the treatment and the plants are then placed in a climatic chamber at 18° C. day and night with saturate humidity until the symptoms assessment.
as §1

With `CCOC(=O)OC1=C(c2cc(C)ccc2C)C(=O)N[C@]12CC[C@@H](OC)CC2` [spirotetramat], the “Efficacy, disease controlled” value in assay [1] (100 g a.i./ha) and in assay [1] (200 g a.i./ha) was 95% in each case. For the same compound, the “Activity on Peronospora parasitica” value in assay [2] (31 mg/l active ingredient), in assay [2] (125 mg/l active ingredient) and in assay [2] (500 mg/l active ingredient) was 100% throughout. The “Efficacy (Abbott formula)” value in assay [3] (100 g a.i./ha) turned out to be 86%; in assay [3] (1000 g a.i./ha), 99%. Further, in assay [3] (Trial 2, potato, around 150 g a.i./ha, high disease pressure, preventive 24 h (FIG. 2)), the “Efficacy compared with standards” value is on record as “equivalent to the best standard”. In addition, the “Activity against Plasmopara viticola vine downy mildew” value in assay [4] was found to be 100%.
